Experimental data reported in ChEMBL document CHEMBL1201862, “PubChem BioAssay data set” (2004).
Active and inactive are the calls of the source.

Columns and labels:
[1] = biological target: Melanin-concentrating hormone receptor 1 (Homo sapiens, UniProt Q99705); assay: Fluorescence-based counterscreen for antagonists of the G-protein coupled receptor 7 (GPR7): cell-based high throughput dose response assay to identify antagonists of the melanin-concentrating hormone receptor 1 (MCHR1).; type: functional
[2] = biological target: Neuropeptides B/W receptor type 1 (Homo sapiens, UniProt P48145); assay: Fluorescence-based dose response cell-based high throughput screening assay to identify antagonists of the G-protein coupled receptor 7 (GPR7). [Related pubchem assays: 1952 (Screening assay (GPR7 antagonists).), 1880 (Summary AID.)]; type: functional
[3] = biological target: T1, Rac GTPase-activating protein 1 (Homo sapiens, UniProt Q9H0H5); assay: MgcRacGAP GTPase-activating activity inhibitors, confirmation, biochemical, ADP Hunter fluorescence, primary and confirmatory (AID 624330); type: functional
T1 sequence (Q9H0H5 whole entry): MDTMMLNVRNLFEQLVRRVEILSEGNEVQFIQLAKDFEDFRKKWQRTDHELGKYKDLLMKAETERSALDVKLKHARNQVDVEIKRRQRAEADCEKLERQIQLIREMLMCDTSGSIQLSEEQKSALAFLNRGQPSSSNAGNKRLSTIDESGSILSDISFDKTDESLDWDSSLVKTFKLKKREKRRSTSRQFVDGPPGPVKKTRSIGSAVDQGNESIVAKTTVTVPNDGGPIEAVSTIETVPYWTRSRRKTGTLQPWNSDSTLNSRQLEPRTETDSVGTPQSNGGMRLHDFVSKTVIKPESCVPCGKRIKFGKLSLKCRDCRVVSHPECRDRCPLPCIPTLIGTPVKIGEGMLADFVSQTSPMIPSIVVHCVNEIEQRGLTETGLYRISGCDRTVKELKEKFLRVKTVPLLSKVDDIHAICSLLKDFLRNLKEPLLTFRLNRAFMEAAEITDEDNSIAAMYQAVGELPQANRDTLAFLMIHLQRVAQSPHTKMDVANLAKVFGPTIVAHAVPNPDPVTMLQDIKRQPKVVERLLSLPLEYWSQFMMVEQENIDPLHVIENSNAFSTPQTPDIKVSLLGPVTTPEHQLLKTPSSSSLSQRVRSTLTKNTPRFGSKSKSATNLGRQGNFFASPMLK

[4] = A cytotoxicity screen of small molecule inhibitors of the PhoP region in Salmonella typhi identified in the primary screen. [Related pubchem assays: 1850, 1864, 1985 ]; type: functional
[5] = biological target: T2, Alkaline phosphatase, tissue-nonspecific isozyme (Homo sapiens, UniProt P05186)
T2 sequence (P05186 whole entry): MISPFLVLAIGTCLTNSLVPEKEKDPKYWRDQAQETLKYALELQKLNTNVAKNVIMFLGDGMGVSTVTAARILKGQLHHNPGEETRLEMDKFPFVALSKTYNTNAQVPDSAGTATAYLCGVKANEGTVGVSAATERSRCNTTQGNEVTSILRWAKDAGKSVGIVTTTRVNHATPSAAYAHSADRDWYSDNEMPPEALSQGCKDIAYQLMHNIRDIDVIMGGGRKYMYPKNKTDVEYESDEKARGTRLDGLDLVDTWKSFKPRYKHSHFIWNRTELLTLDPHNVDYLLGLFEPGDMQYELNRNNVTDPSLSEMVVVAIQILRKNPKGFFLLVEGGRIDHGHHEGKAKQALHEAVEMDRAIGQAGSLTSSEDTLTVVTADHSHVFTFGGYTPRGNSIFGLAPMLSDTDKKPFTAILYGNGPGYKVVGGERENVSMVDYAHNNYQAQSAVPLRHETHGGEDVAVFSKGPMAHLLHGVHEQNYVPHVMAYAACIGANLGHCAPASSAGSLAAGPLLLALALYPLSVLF

[6] = biological target: Peroxisome proliferator-activated receptor gamma/Nuclear receptor coactivator 1 (Homo sapiens, UniProt P37231); assay: TR-FRET dose response biochemical High Throughput Screening assay for agonists of the steroid receptor coactivator 1 (SRC-1) recruitment by the peroxisome proliferator-activated receptor gamma (PPAR gamma): non-selective agonists. [Related pubchem assays (depositor defined):AID1300, AID1808, AID504735, AID631]; type: protein assay
[7] = biological target: Photoreceptor-specific nuclear receptor (Homo sapiens, UniProt Q9Y5X4); type: functional;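 further: potency for compounds that break the NR2E3 corepressor complex and count as activators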
[8] = biological target: Peroxisome proliferator-activated receptor gamma/Nuclear receptor coactivator 3 (Homo sapiens, UniProt P37231); assay: TR-FRET dose response biochemical High Throughput Screening assay for agonists of the steroid receptor coactivator 3 (SRC-3) recruitment by the peroxisome proliferator-activated receptor gamma (PPAR gamma): non-selective agonists. [Related pubchem assays: 1301 (Confirmation screen.), 1048 (Primary screen.)]; type: functional
[9] = biological target: Peroxisome proliferator-activated receptor gamma/Nuclear receptor corepressor 2 (Homo sapiens, UniProt P37231+Q9Y618); type: functional
[10] = biological target: Peroxisome proliferator-activated receptor gamma/Nuclear receptor coactivator 2 (Homo sapiens, UniProt P37231); assay: TR-FRET dose response biochemical High Throughput Screening assay for agonists of the steroid receptor coactivator 2 (SRC-2) recruitment by the peroxisome proliferator-activated receptor gamma (PPAR gamma): non-selective agonists. [Related pubchem assays: 1297, 1032 ]; type: functional
[11] = biological target: T3, Dual specificity protein phosphatase 6 (Rattus norvegicus, UniProt Q64346); type: functional
T3 sequence (Q64346 whole entry): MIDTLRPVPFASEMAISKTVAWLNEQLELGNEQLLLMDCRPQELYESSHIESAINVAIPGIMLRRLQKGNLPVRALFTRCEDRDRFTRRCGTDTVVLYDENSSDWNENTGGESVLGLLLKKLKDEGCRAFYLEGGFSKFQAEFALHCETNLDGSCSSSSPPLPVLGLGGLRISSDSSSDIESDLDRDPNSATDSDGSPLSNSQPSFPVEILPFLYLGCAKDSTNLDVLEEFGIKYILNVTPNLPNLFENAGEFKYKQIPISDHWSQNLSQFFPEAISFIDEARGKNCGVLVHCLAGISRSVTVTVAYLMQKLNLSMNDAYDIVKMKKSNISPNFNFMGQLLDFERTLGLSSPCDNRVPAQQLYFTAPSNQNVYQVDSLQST

[12] = biological target: T3, Dual specificity protein phosphatase 6
[13] = biological target: T4, Tyrosine-protein phosphatase non-receptor type 7 (Homo sapiens, UniProt P35236); type: functional
T4 sequence (P35236 whole entry): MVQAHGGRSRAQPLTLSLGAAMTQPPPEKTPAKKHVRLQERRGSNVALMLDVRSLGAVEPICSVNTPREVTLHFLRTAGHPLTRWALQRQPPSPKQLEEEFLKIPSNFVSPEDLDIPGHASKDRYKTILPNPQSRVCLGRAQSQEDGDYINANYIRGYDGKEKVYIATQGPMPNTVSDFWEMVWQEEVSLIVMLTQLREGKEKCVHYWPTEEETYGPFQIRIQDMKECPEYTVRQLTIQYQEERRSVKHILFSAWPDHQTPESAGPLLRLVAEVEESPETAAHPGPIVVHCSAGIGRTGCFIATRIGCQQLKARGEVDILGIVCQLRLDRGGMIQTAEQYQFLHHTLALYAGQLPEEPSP

[14] = biological target: Glyceraldehyde-3-phosphate dehydrogenase (Homo sapiens, UniProt P04406)
HEK293 = assay: inhibitors of LMP1-driven NF-kB reporter, dose response, cell-based, HEK293, luciferase, cherry-pick (AID 588343); type: functional; conditions: Homo sapiens
INS1 = assay: beta cell apoptosis inhibitors, cytokine rescue, dose response, luminescence, retest (AID 449756); type: functional, cell-based; conditions: Rattus norvegicus;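 further: cell death triggered by IL-1 beta plus TNF-alpha plus IFN-gamma mixture; protective hits raise ATP signal compared with cytokine alone wells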
[15] = Luminescent dose response cell-based high throughput screening assay for inhibitors of the Janus kinase 2 mutant JAK2V617F. [Related pubchem assays: 1446 (Primary screen.), 1521 (Confirmation assay.), 1486 (Counter screen.)]; type: functional
BJ [16] = assay: cytotoxicity toward BJ-TERT fibroblasts, dose response, cell-based, RAS-independent, luminescence (AID 1933); type: functional; conditions: Homo sapiens
Streptococcus = assay: Group A Streptococcus viability loss, dose response, counter-screen for streptokinase expression inhibitor project, luminescence, BacTiterGlo (AID 1915); type: functional, organism-based;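 further: potency for reduction of bacterial viability or growth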
[17] = AlphaScreen signal interference compounds, dose response, artefact control for ARNT-TACC3 interaction inhibitor project, biochemical, luminescence, cherry-pick (AID 651705); type: functional;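 further: AlphaScreen bead proximity signal that flags compounds interfering with the detection technology; potency reflects signal decrease which marks the compound as an assay artifact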
[18] = cytotoxicity toward DRD oncogenic fibroblasts, dose response, cell-based, non-viral oncogenic, luminescence (AID 1934); type: functional; conditions: Homo sapiens
[19] = biological target: T5, Serine/threonine-protein phosphatase (Homo sapiens, UniProt Q9BPW0); assay: Counterscreen for inhibitors of PP1: fluorescence-based biochemical high throughput dose response assay to identify inhibitors of Protein Phosphatase 5 (PP5). [Related pubchem assays: 2034 (Summary (PP5 inhibitors)), 1987 (PP5 inhibitors in singlate), 2235 (PP1 inhibitors in singlate)]
T5 sequence (Q9BPW0 whole entry): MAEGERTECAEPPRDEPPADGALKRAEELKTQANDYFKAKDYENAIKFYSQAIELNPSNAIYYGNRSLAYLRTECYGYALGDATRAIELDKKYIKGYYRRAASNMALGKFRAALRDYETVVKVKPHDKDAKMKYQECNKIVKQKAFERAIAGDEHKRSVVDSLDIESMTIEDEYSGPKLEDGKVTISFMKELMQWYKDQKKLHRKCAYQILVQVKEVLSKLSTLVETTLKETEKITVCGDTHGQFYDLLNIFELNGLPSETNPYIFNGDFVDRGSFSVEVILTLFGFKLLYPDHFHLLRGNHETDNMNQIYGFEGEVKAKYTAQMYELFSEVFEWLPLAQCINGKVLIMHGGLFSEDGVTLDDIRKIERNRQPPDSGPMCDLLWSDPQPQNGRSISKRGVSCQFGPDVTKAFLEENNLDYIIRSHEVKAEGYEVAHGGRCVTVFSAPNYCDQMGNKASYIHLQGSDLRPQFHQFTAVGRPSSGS

[20] = insulin promoter down-regulators in MIN6 cells, imaging, high-content screening, mouse beta cells (AID 1628); type: functional
[21] = cytotoxicity in MIN6 insulinoma cells, dose response, cytotoxicity control, cell-based, mouse insulinoma (AID 2122); type: functional;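 further: confirmatory high-throughput counterscreen run to flag cytotoxic compounds; mouse MIN-6 beta cells carrying an insulin promoter eGFP reporter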
[22] = biological target: Serine/threonine-protein phosphatase PP1-alpha catalytic subunit (Homo sapiens, UniProt P62136); assay: PP1 phosphatase inhibitors, dose response, biochemical, fluorescence (AID 2403);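 further: phosphatase turnover of OMFP into fluorescent 3-O-methylfluorescein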
BJ [23] = assay: cells; type: functional, cell-based; conditions: Homo sapiens
[24] = tested on: Streptococcus sp. 'group A'; assay: growth inhibition of control SK(-) GAS strain, dose response, counter-screen for streptokinase expression inhibitor project, luminescence, kanamycin, BacTiterGlo, confirmation (AID 1900); type: functional, organism-based
BJ [25] = assay: cytotoxicity toward BJ-TERT-LT-ST fibroblasts, dose response, cell-based, RAS-independent, luminescence (AID 1935); type: functional; conditions: Homo sapiens;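 further: BJ fibroblasts immortalized with TERT plus LT and ST oncogenes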
Cytochrome P450 2D6 = Cytochrome P450 2D6 (Homo sapiens, UniProt P10635); assay: qHTS Assay for Inhibitors and Substrates of Cytochrome P450 2D6. [Related pubchem assays: 410 ]; type: ADME; conditions: read-out: Potency
[26] = biological target: G2/mitotic-specific cyclin-B1 (Homo sapiens, UniProt P14635); assay: Counterscreen assay for inhibitors of Wee1 degradation: dose response cell-based assay to identify inhibitors of cyclin B degradation. [Related pubchem assays: 1410, 1321 ]; type: functional
Wee1-like protein kinase = Wee1-like protein kinase (Homo sapiens, UniProt P30291); assay: Dose Response Cell-based Assay for Inhibitors of Wee1 Degradation. [Related pubchem assays: 1410, 1321 ]; type: functional
Streptokinase A = biological target: T6, Streptokinase A (Streptococcus pyogenes serotype M1, UniProt P10520); assay: S. pyogenes streptokinase expression inhibitors, potency, dose response, plasminogen activation absorbance, OD405 (AID 1914); type: functional, Streptococcus pyogenes M1 GAS;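 further: secreted streptokinase activity via plasminogen activation per viability signal from cell pellet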
T6 sequence (P10520 whole entry): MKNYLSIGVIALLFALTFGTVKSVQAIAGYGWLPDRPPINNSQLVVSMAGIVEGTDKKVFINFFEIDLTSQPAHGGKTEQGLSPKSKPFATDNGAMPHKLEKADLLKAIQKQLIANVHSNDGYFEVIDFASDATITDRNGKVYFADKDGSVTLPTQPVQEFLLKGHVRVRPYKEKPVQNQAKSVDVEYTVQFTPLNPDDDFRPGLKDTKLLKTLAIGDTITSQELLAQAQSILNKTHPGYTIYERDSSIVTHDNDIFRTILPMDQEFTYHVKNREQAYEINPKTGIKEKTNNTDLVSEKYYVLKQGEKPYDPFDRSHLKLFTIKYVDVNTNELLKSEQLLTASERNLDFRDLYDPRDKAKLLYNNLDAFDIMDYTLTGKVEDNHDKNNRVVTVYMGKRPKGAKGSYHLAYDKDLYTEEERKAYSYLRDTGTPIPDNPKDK

Photoreceptor-specific nuclear receptor, sequence (Q9Y5X4 whole entry): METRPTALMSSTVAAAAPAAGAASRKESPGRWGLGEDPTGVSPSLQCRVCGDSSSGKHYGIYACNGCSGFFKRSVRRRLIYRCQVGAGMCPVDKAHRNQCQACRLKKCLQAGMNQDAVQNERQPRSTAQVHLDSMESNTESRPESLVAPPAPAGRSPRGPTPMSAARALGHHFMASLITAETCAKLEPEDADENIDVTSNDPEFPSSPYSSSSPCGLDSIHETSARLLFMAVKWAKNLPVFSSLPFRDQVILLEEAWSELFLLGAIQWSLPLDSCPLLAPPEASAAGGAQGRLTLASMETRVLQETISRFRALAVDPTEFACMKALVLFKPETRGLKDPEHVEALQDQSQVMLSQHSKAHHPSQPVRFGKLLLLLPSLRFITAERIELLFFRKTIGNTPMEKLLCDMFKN
Neuropeptides B/W receptor type 1, sequence (P48145 whole entry): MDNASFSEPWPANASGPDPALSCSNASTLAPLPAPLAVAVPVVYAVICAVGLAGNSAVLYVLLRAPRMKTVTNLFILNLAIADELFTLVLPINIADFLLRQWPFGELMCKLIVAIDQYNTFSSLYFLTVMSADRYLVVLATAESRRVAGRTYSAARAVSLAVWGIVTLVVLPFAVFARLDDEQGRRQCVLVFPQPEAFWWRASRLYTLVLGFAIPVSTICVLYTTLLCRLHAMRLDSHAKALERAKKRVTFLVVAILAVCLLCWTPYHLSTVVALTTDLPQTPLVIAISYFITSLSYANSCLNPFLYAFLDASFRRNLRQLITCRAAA
Serine/threonine-protein phosphatase PP1-alpha catalytic subunit, sequence (P62136 whole entry): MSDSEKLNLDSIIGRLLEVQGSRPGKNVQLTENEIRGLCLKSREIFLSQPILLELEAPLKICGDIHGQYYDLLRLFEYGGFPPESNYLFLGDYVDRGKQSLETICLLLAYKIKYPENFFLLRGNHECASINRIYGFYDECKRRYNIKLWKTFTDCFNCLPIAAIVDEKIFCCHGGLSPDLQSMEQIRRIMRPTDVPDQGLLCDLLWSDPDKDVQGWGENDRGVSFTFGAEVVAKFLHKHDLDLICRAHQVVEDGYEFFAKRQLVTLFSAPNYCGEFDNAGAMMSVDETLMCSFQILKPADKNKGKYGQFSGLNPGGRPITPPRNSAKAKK
Melanin-concentrating hormone receptor 1, sequence (Q99705 whole entry): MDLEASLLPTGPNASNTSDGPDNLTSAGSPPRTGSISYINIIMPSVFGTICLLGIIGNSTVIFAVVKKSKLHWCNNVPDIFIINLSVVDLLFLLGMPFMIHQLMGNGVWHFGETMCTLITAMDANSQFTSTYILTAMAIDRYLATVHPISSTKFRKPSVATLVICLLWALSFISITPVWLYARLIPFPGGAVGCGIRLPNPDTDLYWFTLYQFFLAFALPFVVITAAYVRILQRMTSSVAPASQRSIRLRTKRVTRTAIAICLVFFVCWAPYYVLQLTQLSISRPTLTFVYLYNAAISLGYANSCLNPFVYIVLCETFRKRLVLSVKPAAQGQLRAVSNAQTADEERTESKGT
Peroxisome proliferator-activated receptor gamma/Nuclear receptor coactivator 3, sequence (P37231 whole entry): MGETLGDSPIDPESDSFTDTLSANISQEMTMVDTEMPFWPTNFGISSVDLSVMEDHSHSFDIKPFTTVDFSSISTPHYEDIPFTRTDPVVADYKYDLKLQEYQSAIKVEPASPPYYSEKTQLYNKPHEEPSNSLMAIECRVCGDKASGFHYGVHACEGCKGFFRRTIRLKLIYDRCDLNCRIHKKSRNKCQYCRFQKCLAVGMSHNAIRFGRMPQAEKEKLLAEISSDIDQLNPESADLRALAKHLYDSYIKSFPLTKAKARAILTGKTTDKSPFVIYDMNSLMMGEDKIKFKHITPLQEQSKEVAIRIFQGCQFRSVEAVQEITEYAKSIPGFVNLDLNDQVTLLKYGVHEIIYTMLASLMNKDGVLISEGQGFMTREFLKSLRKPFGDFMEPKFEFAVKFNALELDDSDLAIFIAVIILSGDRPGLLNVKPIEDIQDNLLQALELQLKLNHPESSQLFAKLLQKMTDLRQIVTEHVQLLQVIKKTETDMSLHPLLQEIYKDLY
Peroxisome proliferator-activated receptor gamma/Nuclear receptor coactivator 3, sequence (Q9Y6Q9 whole entry, further chain): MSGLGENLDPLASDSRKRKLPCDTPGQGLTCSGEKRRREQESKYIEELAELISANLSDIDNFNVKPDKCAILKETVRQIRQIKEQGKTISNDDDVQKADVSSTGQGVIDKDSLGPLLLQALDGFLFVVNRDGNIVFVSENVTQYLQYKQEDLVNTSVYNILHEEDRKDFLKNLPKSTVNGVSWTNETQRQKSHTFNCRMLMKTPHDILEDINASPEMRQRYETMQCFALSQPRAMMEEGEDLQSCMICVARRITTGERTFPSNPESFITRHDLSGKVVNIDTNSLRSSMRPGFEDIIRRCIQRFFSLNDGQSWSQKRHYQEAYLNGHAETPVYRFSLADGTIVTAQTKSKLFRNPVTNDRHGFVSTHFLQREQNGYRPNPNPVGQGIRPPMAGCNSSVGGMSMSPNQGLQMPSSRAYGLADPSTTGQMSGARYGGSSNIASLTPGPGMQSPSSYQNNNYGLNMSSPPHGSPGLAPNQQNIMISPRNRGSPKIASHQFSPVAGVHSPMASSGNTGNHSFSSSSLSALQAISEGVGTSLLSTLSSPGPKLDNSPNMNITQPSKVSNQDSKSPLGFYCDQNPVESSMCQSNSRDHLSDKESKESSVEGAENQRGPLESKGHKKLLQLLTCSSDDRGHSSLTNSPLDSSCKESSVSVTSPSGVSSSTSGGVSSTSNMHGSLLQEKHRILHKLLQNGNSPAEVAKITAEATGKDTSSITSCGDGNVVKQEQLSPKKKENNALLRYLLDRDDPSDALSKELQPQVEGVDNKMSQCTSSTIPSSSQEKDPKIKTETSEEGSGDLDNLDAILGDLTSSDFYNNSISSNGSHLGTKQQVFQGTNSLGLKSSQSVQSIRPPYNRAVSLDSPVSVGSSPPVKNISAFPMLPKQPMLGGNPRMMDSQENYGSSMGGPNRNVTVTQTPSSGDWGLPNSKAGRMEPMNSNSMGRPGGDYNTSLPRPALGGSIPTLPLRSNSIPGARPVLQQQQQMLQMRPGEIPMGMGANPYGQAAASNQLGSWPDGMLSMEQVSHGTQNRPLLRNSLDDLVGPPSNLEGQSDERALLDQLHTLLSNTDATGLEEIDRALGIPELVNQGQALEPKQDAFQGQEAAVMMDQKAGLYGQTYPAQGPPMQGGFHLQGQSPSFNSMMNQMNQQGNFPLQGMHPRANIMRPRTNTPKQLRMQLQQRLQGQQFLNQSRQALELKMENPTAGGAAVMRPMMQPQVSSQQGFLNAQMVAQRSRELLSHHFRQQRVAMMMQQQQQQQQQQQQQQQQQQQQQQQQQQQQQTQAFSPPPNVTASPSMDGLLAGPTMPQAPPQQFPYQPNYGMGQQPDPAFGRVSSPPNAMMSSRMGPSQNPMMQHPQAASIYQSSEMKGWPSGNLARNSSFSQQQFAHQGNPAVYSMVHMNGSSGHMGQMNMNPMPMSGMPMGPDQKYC
Glyceraldehyde-3-phosphate dehydrogenase, sequence (P04406 whole entry): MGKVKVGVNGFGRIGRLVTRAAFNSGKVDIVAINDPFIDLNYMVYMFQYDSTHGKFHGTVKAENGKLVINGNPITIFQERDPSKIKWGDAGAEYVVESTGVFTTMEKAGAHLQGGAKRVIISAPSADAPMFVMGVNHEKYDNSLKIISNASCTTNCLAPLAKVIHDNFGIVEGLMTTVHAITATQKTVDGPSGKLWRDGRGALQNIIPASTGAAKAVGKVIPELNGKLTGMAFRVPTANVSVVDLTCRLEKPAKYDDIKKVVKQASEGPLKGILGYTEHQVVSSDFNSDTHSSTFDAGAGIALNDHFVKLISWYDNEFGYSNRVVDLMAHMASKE
Wee1-like protein kinase, sequence (P30291 whole entry): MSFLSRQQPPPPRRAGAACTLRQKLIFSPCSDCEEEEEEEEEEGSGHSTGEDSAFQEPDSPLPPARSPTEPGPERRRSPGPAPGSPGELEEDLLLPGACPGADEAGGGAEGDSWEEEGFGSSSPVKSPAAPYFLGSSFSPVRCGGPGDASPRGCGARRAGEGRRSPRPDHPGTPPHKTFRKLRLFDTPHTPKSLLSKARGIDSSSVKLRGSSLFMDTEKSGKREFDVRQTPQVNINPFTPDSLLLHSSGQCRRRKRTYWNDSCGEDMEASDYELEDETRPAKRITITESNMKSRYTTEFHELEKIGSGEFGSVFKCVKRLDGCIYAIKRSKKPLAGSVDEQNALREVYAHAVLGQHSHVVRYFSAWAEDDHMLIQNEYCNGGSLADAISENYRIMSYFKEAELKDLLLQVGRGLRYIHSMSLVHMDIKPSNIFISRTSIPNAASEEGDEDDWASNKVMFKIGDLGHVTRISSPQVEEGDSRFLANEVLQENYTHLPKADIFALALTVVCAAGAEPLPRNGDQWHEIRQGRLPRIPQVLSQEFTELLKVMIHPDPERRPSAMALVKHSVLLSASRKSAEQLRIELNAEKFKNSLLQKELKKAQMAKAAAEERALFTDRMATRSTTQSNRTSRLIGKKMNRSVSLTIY
G2/mitotic-specific cyclin-B1, sequence (P14635 whole entry): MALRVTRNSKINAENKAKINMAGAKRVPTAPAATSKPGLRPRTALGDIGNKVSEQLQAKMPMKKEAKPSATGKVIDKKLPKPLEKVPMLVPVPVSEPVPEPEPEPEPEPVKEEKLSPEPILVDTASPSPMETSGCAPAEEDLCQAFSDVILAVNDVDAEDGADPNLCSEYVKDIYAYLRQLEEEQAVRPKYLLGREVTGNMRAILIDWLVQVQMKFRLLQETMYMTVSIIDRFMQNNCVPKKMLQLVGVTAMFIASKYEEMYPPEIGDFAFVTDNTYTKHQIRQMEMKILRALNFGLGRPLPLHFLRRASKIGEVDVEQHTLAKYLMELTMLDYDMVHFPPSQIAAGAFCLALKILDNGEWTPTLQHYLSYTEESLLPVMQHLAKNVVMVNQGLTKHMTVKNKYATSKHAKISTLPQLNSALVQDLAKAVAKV

SMILES: CCOc1ccccc1NC(=O)C(NCC1(N2CCCCC2)CCCCC1)c1ccccc1 (stereo not drawn)
- IC50 [1]: > 14.6 µM (not active)
- IC50 [2]: > 14.6 µM (not active)
- IC50 [3]: 139 µM (active)

SMILES: Cc1ccn2cc(C(=O)Nc3nnc(C)s3)nc2c1
- EC50 [4]: > 50 µM (active)
- EC50 [5]: > 100 µM (not active)

SMILES: CCN(CC)CCCN1C(=O)C(O)=C(C(=O)c2cc3ccccc3o2)C1c1ccccn1 (stereo not drawn)
- EC50 [6]: > 79.4 µM (inactive)
- IC50 [7]: > 39.8 µM (not active)
- EC50 [8]: > 79.4 µM (not active)
- IC50 [9]: 4.13 µM (active)
- EC50 [10]: 35.7 µM (not active)

SMILES: Cc1cc(NC(=O)c2cccs2)no1
- IC50 [11]: > 100 µM (inactive)
- IC50 [12]: > 100 µM (inactive)
- IC50 [13]: > 100 µM (not active)
- IC50 [14]: 50.1 µM (active)

SMILES: c1ccc(CCNc2nc(-c3ccccn3)nc3ccccc23)cc1
- AC50 (HEK293): 1.24 µM (active)
- AC50 (INS1): 1.63 µM (active)
- IC50 [15]: 1.77 µM (active)
- EC50 (BJ [16]): 3.18 µM (active)
- EC50 (Streptococcus): 2.33 µM (active)
- AC50 [17]: 125 µM (active)
- EC50 [18]: 15.9 µM (inconclusive)
- IC50 [19]: 49.3 µM (not active)
- IC50 [20]: 1.96 µM (active)
- IC50 [21]: 1.21 µM (active)
- IC50 [22]: 6.27 µM (active)
- EC50 (BJ [23]): 28.9 µM (active)
- EC50 [24]: 0.916 µM (active)
- EC50 (BJ [25]): 51.1 µM (inconclusive)

SMILES: COc1cccc2oc(-c3ccc(O)cc3)cc(=O)c12
- AC50 (Cytochrome P450 2D6): 15.8 µM (inconclusive)

SMILES: O=C(Nc1ccc(Cl)c(Cl)c1)Nc1nccs1
- EC50 (BJ [16]): 3.87 µM (active)
- EC50 (Streptococcus): 15.4 µM (active)
- EC50 [18]: 3.33 µM (active)
- EC50 [26]: > 49.7 µM (not active)
- EC50 (Wee1-like protein kinase): > 49.7 µM (not active)
- EC50 (Streptokinase A): > 150 µM (not active)
- EC50 (BJ [23]): 46.2 µM (active)
- EC50 [24]: 8.23 µM (active)
- EC50 (BJ [25]): 3.25 µM (inconclusive)
